Laboratory results published in patent US11926837B2, “Compositions and methods for controlling plant growth” (PLANTARC BIO LTD., priority 2019, dated 2024).

T1: Arabidopsis thaliana HPPD (AtHPPD) (Arabidopsis thaliana, UniProt P93836)
T1 construct: expressed in transfected cells; host or cells: E. coli BL21 (DE3), pET16 vector
T1 sequence (P93836 1-445): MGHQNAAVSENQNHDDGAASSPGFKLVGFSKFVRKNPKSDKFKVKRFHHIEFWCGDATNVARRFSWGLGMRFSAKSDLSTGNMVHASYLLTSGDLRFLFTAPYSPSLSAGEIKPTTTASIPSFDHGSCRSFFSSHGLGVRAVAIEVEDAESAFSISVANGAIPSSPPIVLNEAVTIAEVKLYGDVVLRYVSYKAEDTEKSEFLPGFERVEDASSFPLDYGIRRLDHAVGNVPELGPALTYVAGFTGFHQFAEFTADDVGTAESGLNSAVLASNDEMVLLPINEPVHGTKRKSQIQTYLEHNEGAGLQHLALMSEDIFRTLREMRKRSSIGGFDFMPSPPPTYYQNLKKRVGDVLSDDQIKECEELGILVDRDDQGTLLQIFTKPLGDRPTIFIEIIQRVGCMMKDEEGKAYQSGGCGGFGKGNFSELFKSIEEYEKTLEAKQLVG


Legend:
[1] = test system: Arabidopsis control (wt, non-transformed) plants; assay: In-planta screen, control (non-transformed, wt) plants; assay type: in vivo
Text: The hppd coding region was cloned into pPA35H binary vector under the control of the CaMV35S constitutive promoter and HSP terminator and was used to transform Arabidopsis plants using agrobacterium according to the dipping flower method, as essentially described in WO 2018/178975. T1 generation transformed seeds were germinated on Basta selection (Bayer) according to manufacturer instructions. […] HPPD resistant plants were detected one-week post germination.

[2] = test system: Arabidopsis plants transformed with Trichoderma spp-HPPD gene; assay: In-planta screen of plants transformed with fungal HPPD; assay type: in vivo
Method: The hppd coding region was cloned into pPA35H binary vector under the control of the CaMV35S constitutive promoter and HSP terminator and was used to transform Arabidopsis plants using agrobacterium according to the dipping flower method, as essentially described in WO 2018/178975. […] 3-4 days post germination, plants were treated with 0.1% and 0.05% Tembotrione (Laudis (Bayer)). HPPD resistant plants were detected one-week post germination.

[3] = test system: HPPD derived from the novel Trichoderma fungus (TP); assay: Bacterial HPPD-activity assay, E. coli BL21 (DE3) transformed with Trichoderma HPPD, brown halo; assay type: cell-based, Trichoderma spp.; conditions: E. coli BL21 (DE3) on agar screen plates, 25° C., 4 days
Method: (§1) E. coli BL21 (DE3) were transformed with the expression vector and monitored for HPPD activity using a colorimetric method as essentially explained in Rocaboy-Faquet. E. et al. (DOI: 10.1007/s00253-014-5793-5) with two minor modifications, namely: 1) The transformed bacteria were inoculated on an agar based medium instead of a liquid medium; 2) The screen was performed at 25° C. for 4 days.
(§2) The screen media was prepared with a concentration gradient of HPPD inhibitors at the indicated concentrations and the transformed bacteria were inoculated on the screening agar plates. HPPD activity was detected by a brown halo resulting from the HPPD-mediated conversion of p-hydroxyphenylpyruvate (HPP) into homogentisate (HGA), which later is oxidized to a melanin-like pigment. Tembotrione resistance of the transformed bacteria was compared to that of plates inoculated with E. coli BL21 (DE3) transformed with either an empty pET16 vector or a pET16 vector transformed with Arabidopsis thaliana hppd cDNA (accession no. AF047834).

[4] = molecular target: T1, Arabidopsis thaliana HPPD (AtHPPD); assay: Bacterial HPPD-activity assay, E. coli BL21 (DE3) transformed with Arabidopsis thaliana hppd cDNA; assay type: cell-based; conditions: E. coli BL21 (DE3) on agar plates with concentration gradient of HPPD inhibitors, 25° C., 4 days
Method: as §1, §2

Camelina plants = assay: In-planta screen of soy HPPD mutants; assay type: in vivo; conditions: T1 Camelina, Laudis (Tembotrione) 0.075% three days post seeding, images 19 days post treatment
Method: T1 generation transformed seeds of Camelina plants with the Soy HPPD (GmHPPD) mutated gene as compared to wt. Plant were treated with Laudis (Tembotrione) 0.075% three days post seeding. EGFP transformed plants were used as control. Images taken 19 days post treatment. The following were tested: • GmHPPD—SEQ ID NO: 118 the native G. max HPPD (Accession number: ABQ96868) • GmHPPD.1=GmHPPD (SEQ ID NO: 118) mutated to substitute its motif 1 with motif 1 of SEQ ID NO: 1—i.e. to include amino acid sequences set forth in SEQ ID NO: 9-10 or 38; • GmHPPD.2=GmHPPD (SEQ ID NO: 118) mutated to substitute its motif 6.2 (SEQ ID NO: 68) first Y with motif 6.2 of SEQ ID NO: 1 (SEQ ID NO: 20)—i.e. to include the mutation Tyr185Phe to include SEQ ID NO: 157; • GmHPPD.3=GmHPPD (SEQ ID NO: 118) mutated to substitute its motif 7.2 (SEQ ID NO: 70) first Y with motif 7.2 of SEQ ID NO: 1 (SEQ ID NO: 22)—i.e. to include the mutation Tyr243Phe; • GmHPPD.4=GmHPPD (SEQ ID NO: 118) mutated to substitute its motif 2.1 (SEQ ID NO: 57) with motif 2.1 of SEQ ID NO: 1 (SEQ ID NO: 11)—i.e. to include the mutation Ala254Trp to include SEQ ID NO: 129; • GmHPPD.5=GmHPPD (SEQ ID NO: 118) mutated to substitute its motif 3.1 with motif 3.1 of SEQ ID NO: 1—i.e. to include the replacement mutations 338-MPSPPP-343 to INVPG.

G. max HPPD = assay: HPPD-activity screen of soy HPPD mutants in E. coli BL21 (DE3); assay type: cell-based
Text: A brown halo is indicative of HPPD activity • GmHPPD SEQ ID NO: 118 ([…] […] […] […] […] […] […] AADVLTVDQIKQCEELGILVDRDDQGTLLQIFTKPVGDRPTIFIXIIQRIGC […]), the native G. max HPPD (Accession number: ABQ96868) • GmHPPD.1=GmHPPD (SEQ ID NO: 118) mutated to substitute its motif 1 with motif 1 of SEQ ID NO: 1—i.e. to include amino acid sequences SEQ ID NO: 9-10 or 38; • GmHPPD.2=GmHPPD (SEQ ID NO: 118) mutated to substitute its motif 6.2 (SEQ ID NO: 68) first Y with motif 6.2 of SEQ ID NO: 1 (SEQ ID NO: 20)—i.e. to include the mutation Tyr185Phe to include SEQ ID NO: 157; • GmHPPD.4=GmHPPD (SEQ ID NO: 118) mutated to substitute its motif 2.1 (SEQ ID NO: 57) with motif 2.1 of SEQ ID NO: 1 (SEQ ID NO: 11)—i.e. to include the mutation Ala254Trp to include SEQ ID NO: 129.

[5] = control (wt plants), Tembotrione 2500 and 500 μg/ml, Mesotrione 50 μg/ml, Topramezon 150 and 30 μg/ml, Isoxaflutole 50 μg/ml
[6] = T2 generation, Tembotrione x1=2500 and x0.2=500 μg/ml, Mesotrione x1=50 μg/ml, Topramezon x1=150 and x0.2=30 μg/ml, Isoxaflutole x1=50 μg/ml

Molecule | plant growth in the presence of the herbicide [1, 5] | plant growth in the presence of the herbicide [2, 6] | further results
CS(=O)(=O)c1cc(C(F)(F)F)ccc1C(=O)c1cnoc1C1CC1 [Isoxaflutole, isoxaflutole] | no plant growth or an acute growth inhibition and leaf bleaching | enabled growth | –
CS(=O)(=O)c1ccc(C(=O)C2C(=O)CCCC2=O)c([N+](=O)[O-])c1 [Mesotrione, mesotrione] | no plant growth or an acute growth inhibition and leaf bleaching | enabled growth | –
Cc1nn(C)c(OCC(=O)c2ccccc2)c1C(=O)c1ccc(Cl)cc1Cl [Pyrazoxyfen, pyrazoxyfen] | – | – | HPPD inhibitor concentration on plates at which HPPD activity (brown halo) was still detected [3]: ≤ 1250 µg/mL
CS(=O)(=O)c1ccc(C(=O)C2C(=O)CCCC2=O)c(Cl)c1COCC(F)(F)F [Tembotrione, tembotrione] | no plant growth or an acute growth inhibition and leaf bleaching | enabled growth | plant growth in the presence of the herbicide ([1]; control (non-transformed), 0.1% and 0.05% Tembotrione (Laudis)): no plant growth; plant growth in the presence of the herbicide ([2]; T1 plants on Basta selection, 0.1% and 0.05% Tembotrione (Laudis) 3-4 days post germination): enabled growth
Cc1c(C(=O)c2cnn(C)c2O)ccc(S(C)(=O)=O)c1C1=NOCC1 [Topramezone, topramezone] | no plant growth or an acute growth inhibition and leaf bleaching | enabled growth | –
AtHPPD: HPPD from Arabidopsis thaliana hppd cDNA (accession no. AF047834) (protein, UniProt P93836 1-445, looked up) 4-hydroxyphenylpyruvate …: MGHQNAAVSENQNHDDGAASSPGFKLVGFSKFVRKNPKSDKFKVKRFHHIEFWCGDATNVARRFSWGLGMRFSAKSDLSTGNMVHASYLLTSGDLRFLFTAPYSPSLSAGEIKPTTTASIPSFDHGSCRSFFSSHGLGVRAVAIEVEDAESAFSISVANGAIPSSPPIVLNEAVTIAEVKLYGDVVLRYVSYKAEDTEKSEFLPGFERVEDASSFPLDYGIRRLDHAVGNVPELGPALTYVAGFTGFHQFAEFTADDVGTAESGLNSAVLASNDEMVLLPINEPVHGTKRKSQIQTYLEHNEGAGLQHLALMSEDIFRTLREMRKRSSIGGFDFMPSPPPTYYQNLKKRVGDVLSDDQIKECEELGILVDRDDQGTLLQIFTKPLGDRPTIFIEIIQRVGCMMKDEEGKAYQSGGCGGFGKGNFSELFKSIEEYEKTLEAKQLVG | – | – | HPPD activity (brown halo) on HPPD inhibitor plates [4]: poor HPPD activity if at all
GmHPPD: the native G. max HPPD (Accession number: ABQ96868) (protein, not fully specified; X: residue not identified in the source) MPIPCNEIQAQAQAQAQPGFKLVGFKNFVRTNPKSDRFQVNRFHHIEFWCTDATNASRRFSWGLGMPIVAKSDLSTGNQIHASYLLRSGDLSFLFSAPYSPSLSAGSSAASSASIPSFDAATCLAFAAKHGFGVRAIALEVADAEAAFSASVAKGAEPASPPVLVDDRTGFAEVRLYGDVVLRYVSYKDAAPQAPHADPSRWFLPGFEAAASSSSFPELDYGIRRLDHAVGNVPELAPAVRYLKGFSGFHEFAEFTAEDVGTSESGLNSVVLANNSETVLLPLNEPVYGTKRKSQIETYLEHNEGAGVQHLALVTHDIFTTLREMRKRSFLGGFEFMPSPPPTYYANLHNRAADVLTVDQIKQCEELGILVDRDDQGTLLQIFTKPVGDRPTIFIXIIQRIGCMVEDEEGKVYQKGACGGFGKGNFSELFKSIEEYEKTLEAKRTA | – | – | herbicide tolerance of transformed plants (Camelina plants): highly damaged; HPPD enzymatic activity (brown halo) (G. max HPPD; 5 μM tembotrione): only minor enzymatic activity; HPPD enzymatic activity (brown halo) (G. max HPPD; 10 μM tembotrione): essentially no enzymatic activity
